Like-named read-outs stand apart in the source and are kept apart here.
Experiments:
[1] = Plasma pharmacokinetics in female BALB/c mice (ip and po); format: in vivo, mouse; conditions: 50 mg/kg; for bioavailability / AUC / Cmax / half-life: female, BALB/c, mice; for bioavailability / AUC / Cmax / half-life / Tmax: mouse, plasma; for bioavailability: oral, read-out: Relative Bioavailability, Frel (po/ip); for Tmax / plasma concentrations quantifiable till: female BALB/c mice
Method: To evaluate the plasma pharmacokinetics of selected compounds, a group of eighteen female mice were administered divided into two groups; Group 1 (intraperitoneal (i.p.)) and Group 2 (oral administration (p.o.)) with compound 21 or compound 37 solution formulation at a dose of 50 mg/kg by both the routes in 5% NMP, 5% Solutol and 90% Normal saline. Blood samples (approximately […]) were collected from retro orbital plexus of each mouse under light isoflurane anesthesia such that the samples were obtained at 0.083, 0.25, 0.5, 1, 2, 4, 8, 12 and 24 hours (i.p.); and pre-dose, 0.25, 0.5, 1, 2, 4, 8, 12 and 24 hour (p.o.). The blood samples were collected from a set of three mice at each time point in labeled micro centrifuge tube containing K2EDTA as anticoagulant. Plasma samples were separated by centrifugation at 4000 rpm for 10 min and stored below −70° C. until bioanalysis. After collection of blood sample, animals were humanely euthanized by carbon dioxide asphyxiation to collect liver and heart from Group 1 and Group 2 at 1, 8 and 24 hours. The collected tissues were rinsed in PBS and were homogenized with cold phosphate buffer saline (pH 7.4) of nine times the weight of liver and two times the weight of heart tissue and stored below −70° C. until bio-analysis. Total volume was ten and three times the tissue weights of liver and heart, respectively. All samples were processed for analysis by protein precipitation using acetonitrile and analyzed with fit-for-purpose LC-MS/MS method (LLOQ: 1.01 ng/mL for plasma; 20.20 ng/g for liver and 6.06 ng/g for heart tissue). […] Exemplary results for compounds 21 (2015-FoleyC-021) and 37 (2015-FoleyC-037) are shown above in Table 2.

[2] = Parallel artificial membrane permeability assay (PAMPA), commercial kit; format: in vitro ADME; conditions: PBS, room temperature, read-out: Parallel artificial membrane permeability assay (PAMPA) Permeability (log Pe [cm/s]) (converted)
Method: To evaluate the Parallel Artificial Membrane Permeability Assay (PAMPA) of selected compounds, an assessment of permeability was done using a commercial PAMPA kit. Selected compounds were evaluated over a range of concentrations by 300 μl of PBS containing the compound to the bottom donor plate. Selected compounds were from DMSO stocks and the final DMSO concentration in the donor wells was one percent. 200 μl of blank PBS was added to the top receiver plate. The plates were allowed to incubate at room temperature. After 5 hours, aliquots were taken from the donor and receiver plates and the concentration of drug was determined. Compound permeability was calculated using the equation [formula] where Pe is expressed in units of cm/s, CA(t) is drug concentration in the acceptor at time t, VD is donor well volume, VA is acceptor well volume, A is the area of the filter (0.3 cm^2), t is time in seconds, and Ceq=[CD(t)*VD+CA(t)*VA]/(VD+VA).

[3] = system: Trypanosoma cruzi parasites; experiment: Trypanosoma cruzi in vitro IC50 (structure-activity analyses); format: cell-based; conditions: infection with Trypanosoma cruzi parasites for 72 hours and treatment with the compound for 72 hours
Method: Select compounds described herein were evaluated for structure-activity analyses in vitro.

[4] = Cytotoxicity screening in MRC5 (CellTiter Glo, fluorescence microscopy); format: cell-based; conditions: human, MRC5 cells
Method: To evaluate the cytotoxicity of selected compounds, cell viability assays (CellTiter Glo) were conducted. Each compound (compound 21 or compound 37) was plated in triplicate starting at their respective stock concentration. They were serially diluted column-wise for ten 3× dilutions using DMSO as the diluent. Staurosporine was used as positive control for DRC (dose response curve), and was plated starting at 1.25 mM. This plate was used as a source plate to make the assay plates by transferring 0.1 μl into 25 μl assay volume to reach the right working concentration for each compound. HepG2 and MRC5 were plated at a density of 1500 cells/25 μl in well in the assay plate and allowed to settle overnight. 0.1 μL of compounds was then transferred from the source plate, into the cell assay plates. The cells were left to incubate with the compounds for 48 hours, after which, 25 μL of Promega Cell Titer-Glo was added to each well, and allowed to incubate at room temperature with shaking for 20 minutes. RLU's (Relative Light Units) for each well were then recorded on a BioTek Synergy NEO. Fluorescence microscopy was also used to evaluate the cytotoxicity of selected compounds. Cells were plated at a density of 1500 cells/25 μl in well in a 384 wells plate the day before incubation with the drugs. The following day, 0.1 μl of the source plate are added to the assay plate. Then, 25 μl of a fluorophores mixture containing Hoechst 33342, Syto17 diluted in Eagle's Minimum Essential Medium (EMEM) was added to each well. Plates are read after 48 hours of incubation in the ImageXpress instrument (Molecular Devices) using the appropriate filters.

[5] = Hepatic microsomal stability, 1 mg/mL hepatic microsomes; format: in vitro ADME; conditions: C57BL/6, mouse, liver microsomes, pH 7.4, 1 μM compound, NADPH, read-out: microsomal stability (t1/2, mouse): 1 mg/mL hepatic microsomes
Method: To evaluate the hepatic microsomal stability of selected compounds, 1 μM of each selected compound was incubated with 1 mg/mL hepatic microsomes in 100 mM KPi, pH 7.4. The microsomes were obtained from C57BL/6 mice. The reaction was initiated by adding NADPH (1 mM final concentration). Aliquots were removed at 0, 5, 10, 20, 40, and 60 minutes and added to acetonitrile (5× v:v) to stop the reaction and precipitate the protein. NADPH dependence of the reaction is evaluated with —NADPH samples. At the end of the assay, the samples were centrifuged through a Millipore Multiscreen Solvinter 0.45 micron low binding PTFE hydrophilic filter plate and analyzed by LC-MS/MS. Data was log transformed and represented as half-life.

[6] = ip, read-out: PK (ip, 50 mg/kg) Area under the curve (AUC)
[7] = ip, read-out: PK (ip, 50 mg/kg) Cmax
[8] = ip, read-out: PK (ip, 50 mg/kg) t1/2 (converted)
[9] = po, read-out: PK (po, 50 mg/kg) AUC
[10] = po, read-out: PK (po, 50 mg/kg) Cmax
[11] = po, read-out: PK (po, 50 mg/kg) t1/2 (converted)
[12] = ip, single intraperitoneal dose
[13] = read-out: MRC5 IC50, Cell Count
[14] = read-out: MRC5 IC50, Cellular ATP
[15] = read-out: MRC5 IC50, Membrane Integrity

bioavailability [1]	AUC [1, 6]	Cmax [1, 7]	half-life [1, 8]	AUC [1, 9]	Cmax [1, 10]	half-life [1, 11]	Tmax [1, 12]	Tmax ([1]; single oral dose)	plasma concentrations quantifiable till ([1]; single intraperitoneal dose)	plasma concentrations quantifiable till ([1]; single oral dose)	Papp at 5 h [2]	IC50 [3]	half-life at 1 μM [5]	Compound	IC50 at 48 h [4, 13]	IC50 at 48 h [4, 14]	IC50 at 48 h [4, 15]
47%	11.1 µM·h	6.8 µM	6.3 h	5.2 µM·h	1.7 µM	4.3 h	0.25 h	1 h	24 h	24 h	5.75 ×10⁻⁶ cm/s	0.048 µM	1.3 min	CN(C)CC#Cc1cccc(-c2nc(C(=O)N[C@@H]3CCN(Cc4ccccc4)C3)cc3c2[C@@H](CCO)N([S@+]([O-])C(C)(C)C)C3)c1 [compound 37, (R)-N-((R)-1-Benzylpyrrolidin-3-yl)-2-((R)-tert-butylsulfinyl)-4-(3-(3-(dimethylamino)prop-1-yn-1-yl)phenyl)-3-(2-hydroxyethyl)-2,3-dihydro-1H-pyrrolo[3,4-c]pyridine-6-carboxamide]	64.2 µM	54.1 µM	13.4 µM
48%	50.1 µM·h	19.8 µM	2.8 h	24.3 µM·h	11.8 µM	3.5 h	0.25 h	1 h	24 h	24 h	0.055 ×10⁻⁶ cm/s	0.054 µM	3.9 min	CN(C)CC#Cc1cccc(-c2nc(C(=O)NCc3ccc4c(c3)OCO4)cc3c2[C@@H](CCO)N([S@+]([O-])C(C)(C)C)C3)c1 [compound 21, (R)-N-(Benzo[d][1,3]dioxol-5-ylmethyl)-2-((R)-tert-butylsulfinyl)-4-(3-(3-(dimethyl-amino)prop-1-yn-1-yl)phenyl)-3-(2-hydroxyethyl)-2,3-dihydro-1H-pyrrolo[3,4-c]pyridine-6-carboxamide]	63.7 µM	44.7 µM	24.4 µM

From patent publication US12071436B2, “Anti-parasitic compounds and uses thereof” (Memorial Sloan-Kettering Cancer Center, priority 2016, dated 2024)
